72 compounds from the Kinase Knowledgebase extract (Sharma et al. 2016) can be followed below.

For this assay, the target named is MAPK14 (human) (UniProt Q16539). Kind of assay: Inhibition of MAPK14 Kinase Activity.
MAPK14 (human), sequence (Q16539 whole entry, looked up): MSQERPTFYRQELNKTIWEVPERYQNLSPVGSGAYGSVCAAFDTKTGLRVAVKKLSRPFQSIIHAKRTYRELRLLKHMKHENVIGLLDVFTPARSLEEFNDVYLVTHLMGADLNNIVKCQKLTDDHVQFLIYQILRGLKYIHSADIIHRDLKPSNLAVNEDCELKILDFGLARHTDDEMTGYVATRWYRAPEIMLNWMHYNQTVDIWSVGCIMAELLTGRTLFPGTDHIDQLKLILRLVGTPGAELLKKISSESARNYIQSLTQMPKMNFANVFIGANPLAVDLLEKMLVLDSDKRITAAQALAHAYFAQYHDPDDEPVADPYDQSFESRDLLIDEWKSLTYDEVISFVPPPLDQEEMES

`O=C(c1sc2c(ccc(=O)n2-c2ccccc2)c1Nc1ccc(F)cc1F)N1CCC[C@@H]1CO` showed an IC50 below 1000 nM. Under `O=C(c1sc2c(ccc(=O)n2-c2ccccc2)c1Nc1ccc(F)c(Cl)c1)N1CCC[C@H]1CO` stands below 1000 nM. The same measure for `O=C(c1sc2c(ccc(=O)n2-c2ccccc2)c1Nc1ccc(F)c(Cl)c1)N1CCC[C@@H]1CO`: below 1000 nM; for `Cc1ccc(-n2c(=O)ccc3c(Nc4ccc(F)c(C)c4)c(C(=O)N4CC[C@@H](O)C4)sc32)cc1`: below 1000 nM; for `Cc1cc(Nc2c(C(=O)N3CC[C@H](N)C3)sc3c2ccc(=O)n3-c2ccccc2)ccc1F`: below 1000 nM. The same measure for `Cc1cc(Nc2c(C(=O)N3CC[C@H](O)C3)sc3c2ccc(=O)n3-c2ccccc2)ccc1F`: below 1000 nM. Turning to `Cc1cccc(Nc2c(C(=O)N3CCC[C@@H]3CO)sc3c2ccc(=O)n3-c2cccc(C)c2)c1`, the IC50 was below 1000 nM. Regarding `O=C(c1sc2c(ccc(=O)n2-c2ccccc2)c1Nc1ccc(F)cc1F)N1C[C@H](O)[C@@H](O)C1`, the half-inhibitory concentration (IC50) is below 1000 nM. Under `Cc1cc(Nc2c(C(=O)N3CC[C@H](O)C3)sc3c2ccc(=O)n3-c2ccc(F)cc2)ccc1F` stands below 1000 nM; under `Cc1ccc(-n2c(=O)ccc3c(Nc4cccc(C)c4)c(C(=O)N4CCC[C@@H]4CO)sc32)cc1`, below 1000 nM; under `O=C(c1sc2c(ccc(=O)n2-c2ccccc2)c1Nc1ccc(F)cc1F)N1CCCC(O)C1` (configuration not stated), below 1000 nM. The same measure for `NC[C@H]1CCCN1C(=O)c1sc2c(ccc(=O)n2-c2ccccc2)c1Nc1ccc(F)cc1F`: below 1000 nM; for `O=C(c1sc2c(ccc(=O)n2-c2ccccc2)c1Nc1ccc(F)cc1F)N1CC[C@H](O)C1`: below 1000 nM. The same measure for `NC1CN(C(=O)c2sc3c(ccc(=O)n3-c3ccccc3)c2Nc2ccc(F)cc2F)C1`: below 1000 nM.

In the case of `O=C(c1sc2c(ccc(=O)n2-c2ccccc2Cl)c1Nc1ccc(F)cc1F)N1CC[C@@H](O)C1`, the IC50 was below 1000 nM. In turn, `Cc1cc(Nc2c(C(=O)N3CC[C@H](N(C)C)C3)sc3c2ccc(=O)n3-c2ccccc2)ccc1F` gave a half-inhibitory concentration (IC50) below 1000 nM. Consider `N#Cc1ccccc1Nc1c(C(=O)N2CC[C@H](O)C2)sc2c1ccc(=O)n2-c1ccccc1`, for which the IC50 is below 1000 nM.

`Cc1cc(Nc2c(C(=O)N3CCC[C@@H]3CO)sc3c2ccc(=O)n3-c2ccc(Cl)cc2)ccc1F` registered an IC50 below 1000 nM.

The compound `Cc1cc(Nc2c(C(=O)N3CCC[C@@H]3CO)sc3c2ccc(=O)n3-c2ccccc2Cl)ccc1F` showed an IC50 below 1000 nM. Under `O=C(c1sc2c(ccc(=O)n2-c2ccc(F)cc2)c1Nc1ccc(F)cc1F)N1CC[C@@H](O)C1` stands below 1000 nM; under `O=C(c1sc2c(ccc(=O)n2-c2ccccc2)c1Nc1ccccc1Cl)N1CCC[C@@H]1CO`, below 1000 nM. The same measure for `O=C(c1sc2c(ccc(=O)n2-c2ccccc2)c1Nc1ccc(F)cc1F)N1CC[C@@H](O)C1`: below 1000 nM; for `O=C(c1sc2c(ccc(=O)n2-c2ccccc2Cl)c1Nc1ccc(F)cc1F)N1CCC[C@@H]1CO`: below 1000 nM. Under `Cc1cc(Nc2c(C(=O)N3CC[C@H](O)C3)sc3c2ccc(=O)n3-c2ccccc2Cl)ccc1F` stands below 1000 nM; under `O=C(c1sc2c(ccc(=O)n2-c2ccccc2)c1Nc1ccccc1)N1CCC[C@@H]1CO`, below 1000 nM; under `O=C(c1sc2c(ccc(=O)n2-c2ccccc2)c1Nc1ccccc1)N1CCC[C@H]1CO`, below 1000 nM. As for `CN(C)[C@@H]1CCN(C(=O)c2sc3c(ccc(=O)n3-c3ccccc3)c2Nc2ccc(F)cc2F)C1`, the IC50 was below 1000 nM. `O=C(c1sc2c(ccc(=O)n2-c2ccccc2)c1Nc1ccccc1Cl)N1CCC[C@H]1CO` returned a half-maximal inhibitory concentration (IC50) below 1000 nM. `Cc1ccc(-n2c(=O)ccc3c(Nc4ccc(F)c(C)c4)c(C(=O)N4CC[C@H](O)C4)sc32)cc1`: the IC50 was below 1000 nM. The compound `Cc1cc(Nc2c(C(=O)N3CCC[C@@H]3CO)sc3c2ccc(=O)n3-c2ccc(F)cc2)ccc1F` showed an IC50 below 1000 nM.

Compound `O=c1ccc2c(Nc3ccc(F)cc3F)c(S(=O)(=O)N3CCC[C@@H]3CO)sc2n1-c1ccccc1` had a half-maximal inhibitory concentration (IC50) below 1000 nM. Turning to `NC[C@@H]1CCCN1C(=O)c1sc2c(ccc(=O)n2-c2ccccc2)c1Nc1ccc(F)cc1F`, the concentration for half-maximal inhibition (IC50) is below 1000 nM.

`CC(C)(O)[C@@H]1CCCN1C(=O)c1sc2c(ccc(=O)n2-c2ccccc2)c1Nc1ccc(F)cc1F`: the half-maximal inhibitory concentration (IC50) was below 1000 nM. In turn, `Cc1cccc(-n2c(=O)ccc3c(Nc4ccc(F)c(C)c4)c(C(=O)N4CCC[C@@H]4CO)sc32)c1` returned an IC50 below 1000 nM. The compound `COC[C@H]1CCCN1C(=O)c1sc2c(ccc(=O)n2-c2ccccc2)c1Nc1ccccc1` displayed a half-maximal inhibitory concentration (IC50) below 1000 nM. In turn, `Cc1cccc(-n2c(=O)ccc3c(Nc4ccc(F)c(C)c4)c(C(=O)N4CCC[C@H]4CO)sc32)c1` had a 50% inhibitory concentration (IC50) below 1000 nM. As for `O=C(c1sc2c(ccc(=O)n2-c2ccc(F)cc2)c1Nc1ccc(F)cc1F)N1CCC[C@@H]1CO`, the IC50 is below 1000 nM.

The compound `O=C(c1sc2c(ccc(=O)n2CC2CC2)c1Nc1ccccc1)N1CCC[C@@H]1CO` registered an IC50 below 1000 nM. The compound `CN(C)C1CN(C(=O)c2sc3c(ccc(=O)n3-c3ccccc3)c2Nc2ccc(F)cc2F)C1` gave an IC50 below 1000 nM.

With `O=C(c1sc2c(ccc(=O)n2-c2ccc(F)cc2)c1Nc1ccc(F)cc1F)N1CC[C@H](O)C1`, the half-inhibitory concentration (IC50) is below 1000 nM. Compound `Cc1cccc(Nc2c(C(=O)N3CC[C@H](O)C3)sc3c2ccc(=O)n3-c2ccccc2Cl)c1` returned an IC50 below 1000 nM. The compound `Cc1cc(Nc2c(C(=O)N3CCC[C@@H]3CO)sc3c2ccc(=O)n3-c2ccccc2)ccc1F` showed an IC50 below 1000 nM. Under `N#Cc1ccccc1Nc1c(C(=O)N2CC[C@@H](O)C2)sc2c1ccc(=O)n2-c1ccccc1` stands below 1000 nM; under `N[C@@H]1CCN(C(=O)c2sc3c(ccc(=O)n3-c3ccccc3)c2Nc2ccc(F)cc2F)C1`, below 1000 nM; under `N[C@H]1CCN(C(=O)c2sc3c(ccc(=O)n3-c3ccccc3)c2Nc2ccc(F)cc2F)C1`, below 1000 nM. In the case of `N#Cc1ccccc1Nc1c(C(=O)N2CCC[C@H]2CO)sc2c1ccc(=O)n2-c1ccccc1`, the half-maximal inhibitory concentration (IC50) is below 1000 nM. The same measure for `O=C(c1sc2c(ccc(=O)n2-c2ccccc2)c1Nc1ccc(F)cc1F)N1C[C@@H](O)[C@@H](O)C1`: below 1000 nM; for `NC1CCN(C(=O)c2sc3c(ccc(=O)n3-c3ccccc3)c2Nc2ccc(F)cc2F)CC1`: below 1000 nM. Under `N#Cc1cccc(Nc2c(C(=O)N3CCC[C@@H]3CO)sc3c2ccc(=O)n3-c2ccccc2)c1` stands below 1000 nM.

`Cc1cc(Nc2c(C(=O)N3CCC[C@H]3CO)sc3c2ccc(=O)n3-c2ccccc2)ccc1F` showed an IC50 below 1000 nM. The same measure for `Cc1ccc(-n2c(=O)ccc3c(Nc4ccc(F)cc4F)c(C(=O)N4CC[C@@H](O)C4)sc32)cc1`: below 1000 nM. The same measure for `Cc1cccc(Nc2c(C(=O)N3CCC[C@@H]3CO)sc3c2ccc(=O)n3-c2ccccc2)c1`: below 1000 nM. Under `CN(C)[C@H]1CCN(C(=O)c2sc3c(ccc(=O)n3-c3ccccc3)c2Nc2ccc(F)cc2F)C1` stands below 1000 nM. `O=C(c1sc2c(ccc(=O)n2-c2ccccc2)c1Nc1ccc(F)cc1F)N1CCC(O)CC1` yielded an IC50 below 1000 nM.

For `Cc1ccc(-n2c(=O)ccc3c(Nc4ccc(F)cc4F)c(C(=O)N4CC[C@H](O)C4)sc32)cc1`, the IC50 was below 1000 nM. Under `Cc1cc(Nc2c(C(=O)N3CC[C@@H](O)C3)sc3c2ccc(=O)n3-c2ccccc2)ccc1F` stands below 1000 nM. `Cc1cc(Nc2c(C(=O)N3CC(O)C3)sc3c2ccc(=O)n3-c2ccccc2)ccc1F` showed a concentration for half-maximal inhibition (IC50) below 1000 nM. For the compound `Cc1cc(Nc2c(C(=O)N3CC[C@@H](N)C3)sc3c2ccc(=O)n3-c2ccccc2)ccc1F`, the IC50 is below 1000 nM. The same measure for `CC(C)(O)[C@H]1CCCN1C(=O)c1sc2c(ccc(=O)n2-c2ccccc2)c1Nc1ccc(F)cc1F`: below 1000 nM; for `Cc1cc(Nc2c(C(=O)N3CCC[C@H]3CN)sc3c2ccc(=O)n3-c2ccccc2)ccc1F`: below 1000 nM.

`CN(C)C1CCN(C(=O)c2sc3c(ccc(=O)n3-c3ccccc3)c2Nc2ccc(F)cc2F)CC1` registered an IC50 below 1000 nM. The same measure for `Cc1ccc(-n2c(=O)ccc3c(Nc4ccc(F)c(C)c4)c(C(=O)N4CCC[C@@H]4CO)sc32)cc1`: below 1000 nM; for `O=C(c1sc2c(ccc(=O)n2-c2ccccc2Cl)c1Nc1ccc(F)cc1F)N1CC[C@H](O)C1`: below 1000 nM. The same measure for `N#Cc1ccccc1Nc1c(C(=O)N2CCC[C@@H]2CO)sc2c1ccc(=O)n2-c1ccccc1`: below 1000 nM; for `O=C(c1sc2c(ccc(=O)n2-c2ccccc2)c1Nc1cccc(Cl)c1)N1CCC[C@@H]1CO`: below 1000 nM. For `Cc1ccc(-n2c(=O)ccc3c(Nc4ccc(F)cc4F)c(C(=O)N4CCC[C@@H]4CO)sc32)cc1`, the half-maximal inhibitory concentration (IC50) was below 1000 nM. Consider `O=C(c1sc2c(ccc(=O)n2-c2ccccc2)c1Nc1ccc(F)cc1F)N1CC(O)C1`, for which the IC50 was below 1000 nM.

Regarding `O=C(c1sc2c(ccc(=O)n2-c2ccccc2)c1Nc1ccc(F)cc1F)N1C[C@@H](O)[C@H](O)C1`, the IC50 is below 1000 nM. Under `O=C(c1sc2c(ccc(=O)n2-c2ccccc2)c1Nc1ccc(F)cc1F)N1CCC[C@H]1CO` stands below 1000 nM. With `COC[C@@H]1CCCN1C(=O)c1sc2c(ccc(=O)n2-c2ccccc2)c1Nc1ccccc1`, the half-inhibitory concentration (IC50) was below 1000 nM. As to `NC1CCN(C(=O)c2sc3c(ccc(=O)n3-c3ccccc3)c2Nc2ccc(F)cc2F)C1` (configuration not stated), the concentration for half-maximal inhibition (IC50) is below 1000 nM. The same measure for `Cc1cc(Nc2c(C(=O)N3CC[C@@H](N(C)C)C3)sc3c2ccc(=O)n3-c2ccccc2)ccc1F`: below 1000 nM.

What is called IC50 is the concentration that inhibits the measured activity by half.
